In patent publication USRE37495E1, “Substituted 1-arylpyrazoles” (Bayer Aktiengesellschaft, priority 1993, dated 2002) one finds degree of destruction, destructive activity and destruction data, which are given here for 3 molecules.

Type in all cases: in vivo
Experiment [1] concerns Phaedon cochleariae larvae. The experiment in a line: Critical concentration test/root-systemic action, Phaedon. The settings on record: 2.5 ppm active compound in soil, leaves infested after 7 days, evaluated after a further 2 days. Here is the method:
Critical Concentration Test/Root-Systemic Action.
Test insect: Phaedon cochleariae larvae
(§1) Solvent: 3 parts by weight of acetone
(§2) Emulsifier: 1 part by weight of alkylaryl polyglycol ether
(§3) To produce a suitable preparation of active compound, 1 part by weight of active compound is mixed with the stated amount of solvent, the stated amount of emulsifier is added and the concentrate is diluted with water to the desired concentration.
(§4) The preparation of active compound is intimately mixed with soil. The concentration of the active compound in the preparation is of practically no importance, only the amount by weight of active compound per unit volume of soil, which is given in ppm (=mg/l), being decisive. The treated soil is transferred into pots and these are planted with cabbage (Brassica oleracea). The active compound can in this way be taken up from the soil by the roots of the plants and be transferred into the leaves.
(§5) After a further 2 days, the evaluation is made by counting or estimating the dead animals. The root-systemic action of the active compound is deduced from the mortality figures. It is 100% if all test animals have been killed and 0% if just as many test insects are still alive as in the case of the untreated control.

The subject of another experiment is Lucilia cuprina larvae. The experiment in a line: Blowfly larvae test. The settings on record: after 24 hours. Here is the method: Test animals: Lucilia cuprina larvae
35 parts by weight of ethylene glcyol monomethyl ether
(§6) 35 parts by weight of nonylphenol polyglycol ether
To produce a suitable preparation of active compound, three parts by weight of active compound are mixed with seven parts by weight of the abovementioned mixture and the emulsion concentrate thus obtained is diluted with water to the particular desired concentration.
About 20 Lucilia cuprina res. larvae are introduced into a test tube which contains approx. 1 cm^3 of horse meat and 0.5 ml of the preparation of active compound. After 24 hours, the effectiveness of the preparation of active compound is determined. 100% means that all blowfly larvae have been killed; 0% means that none of the blowfly larvae have been killed.

Experiment [2] deals with peach aphid (Myzus persicae). The experiment in a line: Myzus test (leaf dip). The settings on record: concentration of active compound 0.1%, after one day, cabbage leaves dipped. The procedure: (§7) Solvent: 7 parts by weight of dimethylformamide
as §2
(§8) To produce a suitable preparation of active compound, 1 part by weight of active compound is mixed with the stated amount of solvent and the stated amount of emulsifier, and the concentrate is diluted with water to the desired concentration.
Cabbage leaves (Brassica oleracea) which are heavily infested with the peach aphid (Myzus persicae) are treated by being dipped into the preparation of active compound of the desired concentration.
(§9) After the specified period of time, the destruction in % is determined. 100% means that all the aphids have been killed; 0% means that none of the aphids have been killed.

The test system of experiment [3] is black bean aphid (Aphis fabae). The experiment in a line: Aphis test (systemic action). The settings on record: concentration of active compound 0.02%, after four days, bean plants watered (systemic). Here is the method:
Aphis Test (Systemic Action)
as §7, §2, §8
Bean plants (Vicia faba) which are heavily infested with the black bean aphid (Aphis fabae) are each watered with 20 ml of preparation of active compound of the desired concentration in such a way that the preparation of active compound penetrates into the soil without wetting the shoot. The active compound is taken up by the roots and passes to the shoot.
as §9

The next experiment concerns Myzus persicae. The experiment in a line: Critical concentration test/root-systemic action, Myzus. The settings on record: 20 ppm active compound in soil, leaves infested after 7 days, evaluated after a further 2 days. The procedure: Critical Concentration Test/Root-Systemic Action
Test insect: Myzus persicae
as §1, §2, §3, §4, §5

Experiment [4] concerns Musca domestica, strain WHO (N). The experiment in a line: Fly test. The settings on record: concentration of active compound 1 ppm, after 6 hours, filter paper. The procedure:
Test animals: Musca domestica, strain WHO (N)
(§10) 35 parts by weight of ethylene glycol monomethyl ether
as §6
(§11) To produce a suitable formulation, three parts by weight of active compound are mixed with seven parts of the abovementioned solvent/emulsifier mixture, and the emulsion concentrate thus obtained is diluted with water to the particular desired concentration.
2 ml of this preparation of active compound are pipetted onto filter paper discs (φ9.5 cm) located in Petri dishes of a suitable size. After the filter paper discs have dried, 25 test animals are introduced into the Petri dish, which is covered.
After 6 hours, the effectiveness of the preparation of active compound is determined. The effectiveness is expressed in %. 100% means that all flies have been killed; 0% means that none of the flies have been killed.

Experiment [5] relates to Blattella germanica or Periplaneta americana. The experiment in a line: Cockroach test. Particulars: after 6 hours, filter paper. Here is the method:
Test animals: Blattella germanica or Periplaneta americana
as §10, §6, §11
2 ml of this preparation of active compound are pipetted onto filter paper discs (φ9.5 cm) located in Petri dishes of a suitable size. After the filter paper discs have dried, 5 test animals (Blattella germanica or Periplaneta americana) are introduced into the Petri dish, which is covered.
After 6 hours, the effectiveness of the preparation of active compound is determined. The effectiveness is expressed in %. 100% means that all cockroaches have been killed; 0% means that none of the cockroaches have been killed.

In experiment [6] the test system is All stages (eggs, larvae, pupae and adults) of Ctenocephalides felis. The experiment in a line: Flea in-vitro test (all development stages). The settings on record: active compound concentration 10% in blood meal. Here is the method:
Flea In-Vitro Test (All Development Stages)
Test subject: All stages (eggs, larvae, pupae and adults) of Ctenocephalides felis.
Blood meal is dried overnight in a shallow dish at approximately 70° C. and then screened using a mesh size of 0.63 mm.
1.8 g portions of this prepared blood meal are transferred into plastic Petri dishes of φ9.8 cm.
Using an Eppendorf pipette, 0.2 ml of substance are placed on the 1.8 g of blood meal (dilution factor 1:10).
That is to say, at a use concentration of 1 ppm, the aqueous solution must have a concentration of 10 ppm. The solution is distributed dropwise over the entire surface of-the blood meal.
These prepared dishes are allowed to dry overnight. Using a suitable device, the substance, which is now in the form of dried lumps of blood meal, is crushed and distributed uniformly in the Petri dish by rotating movements. A spatula-full of sieved flea eggs (which are obtained from artificially infected cats) is now added to these prepared test dishes. The dish is sealed with Parafilm and shaken vigorously.
Incubation is effected at 25° C. and the relative atmospheric humidity of 85%. At certain intervals, the dishes are examined for development stages of fleas.
Test criteria: The criteria used for the in-vitro activity of a substance is the inhibition of flea development or a standstill of the development before the adult stage is reached. […]

`CC(F)(F)Sc1cnn(-c2c(Cl)cc(C(F)(F)F)cc2NN)c1N` [Example 33, 5-amino-4-(1,1-difluoroethylthio)-1-(2-chloro-4-trifluoromethyl-6-hydrazinophenyl)-pyrazole] registered a degree of destruction in experiment [1] of 100%. Further, the destructive activity in the experiment on Lucilia cuprina larvae (concentration of active compound ≧300 ppm) was found to be 100%.
Consider `N#Cc1nn(-c2c(Cl)cc(C(F)(F)F)cc2Cl)c(N)c1[S+]([O-])C(F)(F)F` (stereo not drawn) [prior art], for which the degree of destruction in experiment [2] is listed as 0%; in experiment [3], 0%; in experiment [1], 0%; in the experiment with Myzus persicae, 0%; in experiment [5] (concentration of active compound 10 ppm), under 100%. In addition, the destructive activity in the experiment with Lucilia cuprina larvae (concentration of active compound 1000 ppm) came out at 100%. Moreover, the destruction in experiment [4] was under 100%; in experiment [6] it was 0%.
`Cc1nn(-c2c(Cl)cc(C(F)(F)F)cc2Cl)c(N)c1SC(C)(F)F` [Example 1, 5-amino-3-methyl-4-(1,1-difluoroethylthio)-1-(2,6-dichloro-4-trifluoromethylphenyl)-pyrazole] had a degree of destruction in experiment [1] of 100%. Moreover, the destruction in experiment [5] (concentration of active compound >10 ppm) came to 100%.
